The results in this text go back to ChEMBL document CHEMBL3632463, “Discovery and structure-activity analysis of 4-((5-nitropyrimidin-4-yl)amino)benzimidamide derivatives as novel protein arginine methyltransferase 1 (PRMT1) inhibitors” (Bioorg Med Chem Lett, 2015).

Active and inactive are the calls of the source. No cut-off for these calls is given here. Where only a bound is given, the exact number is not on record here.

The target of test [1] is T1, Protein arginine N-methyltransferase 1 (Homo sapiens, UniProt Q99873). Briefly: Inhibition of PRMT1 (unknown origin) using biotinylated histone H4-derived peptide as substrate at 50 uM after 60 mins by AlphaLISA assay.
Target sequence in this assay (Q99873 whole entry, looked up): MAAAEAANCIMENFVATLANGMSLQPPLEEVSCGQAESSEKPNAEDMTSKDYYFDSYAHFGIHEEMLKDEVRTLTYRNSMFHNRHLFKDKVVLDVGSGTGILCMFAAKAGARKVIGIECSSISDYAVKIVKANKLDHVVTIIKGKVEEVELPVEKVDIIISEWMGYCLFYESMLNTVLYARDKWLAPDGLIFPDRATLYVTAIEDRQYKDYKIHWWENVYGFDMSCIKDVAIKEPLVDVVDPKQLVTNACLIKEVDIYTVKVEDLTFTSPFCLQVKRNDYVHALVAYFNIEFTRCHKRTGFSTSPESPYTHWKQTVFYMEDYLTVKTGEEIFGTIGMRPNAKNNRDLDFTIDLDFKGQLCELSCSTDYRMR
Test [2] has as its target T1, Protein arginine N-methyltransferase 1. Briefly: Non-competitive inhibition of PRMT1 (unknown origin) using biotinylated histone H4-derived peptide as substrate by Michaelis-Menten kinetic equation analysis.
Target sequence in this assay (Q99873 whole entry): as the sequence (Q99873 whole entry, looked up) above
Test [3] concerns the target Protein arginine N-methyltransferase 6 (Homo sapiens, UniProt Q96LA8). Description: Inhibition of PRMT6 (unknown origin) using biotinylated histone H4-derived peptide as substrate after 60 mins by AlphaLISA assay.
Test [4] deals with Protein arginine N-methyltransferase 5 (Homo sapiens, UniProt O14744). Description: Inhibition of PRMT5 (unknown origin) using biotinylated histone H4-derived peptide as substrate after 60 mins by AlphaLISA assay. (In general: In Alpha technology, singlet oxygen from a donor bead excites a nearby acceptor bead.)
The next test has as its system MCF7. Briefly: Cytotoxicity against human MCF7 cells by MTT assay. Type of test: functional, cell-based. (Tetrazolium dyes change colour on reduction, which living cells bring about.)
The target of test [5] is T2, Histone-arginine methyltransferase CARM1 (Homo sapiens, UniProt Q86X55).
T2 sequence (Q86X55 whole entry): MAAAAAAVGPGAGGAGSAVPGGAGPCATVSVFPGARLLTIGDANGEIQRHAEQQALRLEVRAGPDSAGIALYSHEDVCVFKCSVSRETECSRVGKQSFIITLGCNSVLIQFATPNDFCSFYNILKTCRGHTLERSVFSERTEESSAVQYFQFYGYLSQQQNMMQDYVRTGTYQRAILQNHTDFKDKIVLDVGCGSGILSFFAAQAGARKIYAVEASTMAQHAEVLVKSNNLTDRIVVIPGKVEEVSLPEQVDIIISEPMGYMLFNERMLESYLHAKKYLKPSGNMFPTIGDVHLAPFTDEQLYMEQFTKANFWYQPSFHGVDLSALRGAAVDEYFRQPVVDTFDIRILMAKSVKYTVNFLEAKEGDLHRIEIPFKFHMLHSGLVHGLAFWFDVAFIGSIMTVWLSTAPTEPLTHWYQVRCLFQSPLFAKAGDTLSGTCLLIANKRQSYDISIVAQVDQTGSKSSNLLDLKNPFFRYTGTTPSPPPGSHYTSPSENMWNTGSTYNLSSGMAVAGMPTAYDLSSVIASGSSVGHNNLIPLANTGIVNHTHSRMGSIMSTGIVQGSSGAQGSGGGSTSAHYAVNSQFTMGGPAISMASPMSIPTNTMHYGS
Description: Inhibition of PRMT4 (unknown origin) using biotinylated histone H4-derived peptide as substrate after 60 mins by AlphaLISA assay.

A short description of test [6]: Cytotoxicity against human T24 cells by MTT assay. Type of test: functional, cell-based. To be noted: T-24.
The subject of the next test is A-375. Briefly: Cytotoxicity against human A375 cells by MTT assay. Type of test: functional, cell-based.
A short description of test [7]: Cytotoxicity against human DLD1 cells by MTT assay. Type of test: functional, cell-based. To be noted: DLD-1.
Test [8] addresses T1, Protein arginine N-methyltransferase 1. Briefly: Inhibition of PRMT1 in human DLD1 cells assessed as reduction of asymmetric dimethylation of histone H4R3 level at 3 uM by Western blotting. To be noted: DLD-1. Type of test: cell-based. A general note: Immunoblotting shows a protein as a band on a membrane.
Target sequence in this assay (Q99873 whole entry, looked up): as the sequence (Q99873 whole entry, looked up) above
Test [9] shares this target. Description: Inhibition of PRMT1 in human DLD1 cells assessed as effect on symmetric dimethylation of histone H3R8 level at 1 to 30 uM by Western blotting. Type of test: cell-based. To be noted: DLD-1.
Target sequence in this assay (Q99873 whole entry, looked up): as the sequence (Q99873 whole entry, looked up) above
The target is the same in test [10]. Description: Inhibition of PRMT1 (unknown origin) using biotinylated histone H4-derived peptide as substrate after 60 mins by AlphaLISA assay.
Target sequence in this assay (Q99873 whole entry): as the sequence (Q99873 whole entry, looked up) above
A short description of test [11]: Cytotoxicity against human UM-UC-3 cells by MTT assay. Type of test: functional, cell-based. To be noted: UMUC3.
In the next test the test system is SH-SY5Y. Description: Cytotoxicity against human SH-SY5Y cells by MTT assay. Type of test: functional, cell-based.

Protein arginine N-methyltransferase 6, sequence (Q96LA8 whole entry): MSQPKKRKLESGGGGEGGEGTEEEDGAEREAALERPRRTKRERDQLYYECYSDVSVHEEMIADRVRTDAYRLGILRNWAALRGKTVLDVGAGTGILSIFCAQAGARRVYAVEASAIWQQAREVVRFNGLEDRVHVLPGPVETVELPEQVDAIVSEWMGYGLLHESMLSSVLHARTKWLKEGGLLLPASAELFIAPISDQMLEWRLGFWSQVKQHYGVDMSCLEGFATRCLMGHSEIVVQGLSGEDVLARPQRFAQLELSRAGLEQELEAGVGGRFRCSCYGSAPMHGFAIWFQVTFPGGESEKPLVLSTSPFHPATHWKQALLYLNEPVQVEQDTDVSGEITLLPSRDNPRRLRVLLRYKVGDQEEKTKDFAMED
Protein arginine N-methyltransferase 5, sequence (O14744 whole entry): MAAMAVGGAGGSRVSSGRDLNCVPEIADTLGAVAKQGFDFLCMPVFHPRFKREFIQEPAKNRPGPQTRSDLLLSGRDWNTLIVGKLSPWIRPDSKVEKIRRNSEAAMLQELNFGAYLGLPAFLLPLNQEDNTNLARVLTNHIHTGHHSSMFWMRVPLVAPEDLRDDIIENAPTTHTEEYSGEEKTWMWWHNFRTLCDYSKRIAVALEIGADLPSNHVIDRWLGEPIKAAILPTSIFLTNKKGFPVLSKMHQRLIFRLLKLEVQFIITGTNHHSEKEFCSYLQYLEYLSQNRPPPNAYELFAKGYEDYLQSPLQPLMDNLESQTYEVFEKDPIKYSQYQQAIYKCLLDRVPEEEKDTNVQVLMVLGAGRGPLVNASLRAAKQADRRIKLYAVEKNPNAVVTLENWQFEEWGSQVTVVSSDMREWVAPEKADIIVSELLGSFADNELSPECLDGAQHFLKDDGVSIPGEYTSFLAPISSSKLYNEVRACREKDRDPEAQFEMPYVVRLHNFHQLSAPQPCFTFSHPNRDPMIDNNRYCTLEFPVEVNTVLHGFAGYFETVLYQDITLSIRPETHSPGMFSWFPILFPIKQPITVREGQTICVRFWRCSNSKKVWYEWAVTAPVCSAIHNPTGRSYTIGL

Turning to `N=C(N)c1ccc(Nc2ncnc(Nc3ccc(N)cc3)c2[N+](=O)[O-])cc1`, the inhibition in [1] turned out to be 28%.
`N=C(N)c1ccc(Nc2ncnc(NCC(N)=O)c2[N+](=O)[O-])cc1` gave an inhibition in [1] of 49%.
With `N#Cc1ccc(Nc2ncnc(Nc3ccc(C(=N)N)cc3)c2[N+](=O)[O-])cc1`, in test [2], affinity was put at a Ki of 1.7 µM. For the same compound, the IC50 in test [3] was over 100 µM; in test [4] it was over 100 µM; in the test on MCF7 it was 50.6 µM; in [5], 10 µM; in test [6], 13.1 µM; in the test on A-375, over 100 µM. Moreover, the IC50 came to 4.4 µM in test [7], 2 µM in test [10], 45.4 µM in test [11] and 11.4 µM in the test with SH-SY5Y. The inhibition entry in test [8] is “Active”. For the same compound, in test [9], the inhibition result is “inactive”.
In test [1], `COc1cc(Nc2ncnc(Nc3ccc(C(=N)N)cc3)c2[N+](=O)[O-])cc(OC)c1OC` returned an inhibition of 44%. The IC50 in the test on MCF7 is 58.7 µM; in [6], 18.3 µM; with A-375, 87.6 µM; in [7], 83.8 µM; in [11], 65.4 µM; with SH-SY5Y, 16.2 µM.
For the compound `N=C(N)c1ccc(Nc2ncnc(Nc3ccccc3)c2[N+](=O)[O-])cc1`, the inhibition in test [1] was determined as 9%.
Regarding `O=C(Nc1ccc2c(O)cc(S(=O)(=O)O)cc2c1)Nc1ccc2c(O)cc(S(=O)(=O)O)cc2c1`, the IC50 (with MCF7; in [6]; in the test with A-375; in test [7]; in test [11]; in the test on SH-SY5Y) was over 100 µM in each case.
Compound `N=C(N)c1ccc(Nc2ncnc(Nc3ccc(C(N)=O)cc3)c2[N+](=O)[O-])cc1` returned an IC50 in test [10] of 9.3 µM.
In turn, `N=C(N)c1ccc(Nc2ncnc(Nc3ccc(S(N)(=O)=O)cc3)c2[N+](=O)[O-])cc1` gave an inhibition in test [1] of 28%. The IC50 in the test with MCF7 is over 100 µM; in [6] it was 86.8 µM; in the test with A-375, over 100 µM; in [7], 8.5 µM; in test [11] it was 84.6 µM; in the test with SH-SY5Y, 92.4 µM.

By inhibition is commonly meant how much of the control response was suppressed. By Ki is commonly meant a measure of affinity in units of concentration, obtained from inhibition or displacement. Usually IC50 stands for the concentration needed to halve the response being measured.
